Like-named read-outs stand apart in the source and are kept apart here.
Key:
Assay type in all cases: in vivo
corn [1] = assay: Herbicidal pre-emergence action: damage to corn
Excerpt: Seeds of monocotyledonous and dicotyledonous weed and crop plants are placed into sandy loam in cardboard pots and covered with soil. The herbicidal compositions according to the invention, formulated in the form of wettable powders or emulsion concentrates, are then applied as an aqueous suspension or emulsion with a water application rate of 600 to 800 l/ha (converted) in different dosages to the surface of the covering soil. After the treatment, the pots are placed in a greenhouse and kept under good growth conditions for the weeds. Optical scoring of the damage to the plants or the emergence damage is carried out after emergence of the test plants after a test period of 3 to 4 weeks, by comparison with untreated controls.
(§1) The herbicidal activity or damage is in each case stated in percent: 100% activity=the plants have died, 0% activity=like untreated control plants. The abbreviation “a.i.” means active ingredient.

corn [2] = settings: seed treatment, post-emergence; reduction of corn damage by seed dressing with A3 0.5 g/kg; printed in the line of the herbicide alone
corn [3] = test system: corn
Method: Seeds of monocotyledonous and dicotyledonous weed and crop plants are placed into sandy loam in wood fiber pots or in plastic pots, covered with soil and cultivated in a greenhouse, including during the vegetation period outdoors outside of the greenhouse, under good growth conditions. 2-3 weeks after sowing, the test plants are treated at the one- to three-leaf stage. The herbicidal compositions according to the invention, formulated as wettable powders (WP) or liquid (EC) are, in various dosages with a water application rate of 300 l/ha (converted), with added wetting agent (0.2 to 0.3%), sprayed onto the plants and the surface of the soil. 3 to 4 weeks after the treatment of the test plants, the effect of the preparations is rated visually in comparison to untreated controls.
The abbreviation “a.i.” means active ingredient.

corn [4] = assay: Treatment of corn seed with safener, herbicide pre-emergence; settings: reduction of corn damage by seed dressing with A3 0.5 g/kg, printed in the line of the herbicide alone
Method: Corn seed is treated (dressed) with various amounts of a safener and then placed-in sandy loam and covered with soil. The herbicides, formulated as emulsifiable concentrates or dust, are applied using a water application rate of 300 to 800 l/ha (converted) at various dosages to the surface of the covering soil. The optical scoring of the damage to the useful plants is carried out 3 to 5 weeks after the treatment.
as §1
In Tables 3 and 4, the dosage of the herbicide (component B) is stated in gram per hectare and that of the safener (component A) is stated in gram per kilogram of seed.

[5] = pre-emergence, reduction of corn damage by adding safener A3 to the herbicide, printed in the line of the herbicide alone, spans both lines
[6] = post-emergence, reduction of corn damage by adding safener A3 to the herbicide, printed in the line of the herbicide alone, spans both lines

COc1nn(C(=O)NS(=O)(=O)c2ccccc2OC(F)(F)F)c(=O)n1C [Component B1.1, flucarbazone] was tested, and the “Damage reduced by” value (corn [1]; [5]) was 78%, the “Damage reduced by” value (corn [2]) was 80% and the “Damage reduced by” value (corn [3]; [6]) was 70%.

For COc1cc(OC)nc(NC(=O)NS(=O)(=O)c2cc(NC=O)ccc2C(=O)N(C)C)n1 [Component B1.2, foramsulfuron], the “Damage reduced by” value (corn [3]; in vivo) was 100%.

COc1nc(C)nc(NC(=O)NS(=O)(=O)c2cc(I)ccc2C(=O)O)n1 [Component B1.3, iodosulfuron] was tested, and the “Damage reduced by” value (corn [1]; in vivo) was 69%.

With COc1cc(OC)n2nc(S(=O)(=O)Nc3c(Cl)ccc(C)c3Cl)nc2n1 [Component B1.4, metosulam] the “Damage reduced by” value (corn [1]; in vivo) was 33%.

COc1nc(C)nc(=NC(=O)NS(=O)(=O)c2ccccc2C(=O)O)[nH]1 [Component B1.5, metsulfuron] was tested, and the “Damage reduced by” value (corn [2]) was 80% and the “Damage reduced by” value (corn [3]; [6]) was 80%.

With COc1cc(OC)nc(NC(=O)NS(=O)(=O)c2ncccc2C(=O)N(C)C)n1 [Component B1.6, nicosulfuron] the “Damage reduced by” value (corn [1]; [5]) was 67%.

COc1nc(C)nc(NC(=O)NS(=O)(=O)c2ccccc2CCC(F)(F)F)n1 [Component B1.8, prosulfuron] was tested, and the “Damage reduced by” value (corn [1]; in vivo) was 67%.

COc1nc(C)nc(NC(=O)NS(=O)(=O)c2ccsc2C(=O)O)n1 [Component B1.9, thifensulfuron] was tested, and the “Damage reduced by” value (corn [1]; [5]) was 100%.

For COc1nc(C)nc(N(C)C(=O)NS(=O)(=O)c2ccccc2C(=O)O)n1 [Component B1.10, tribenuron], the “Damage reduced by” value (corn [1]; [5]) was 50% and the “Damage reduced by” value (corn [4]) was 60%.

CCOc1nc(F)cc2nc(S(=O)(=O)Nc3c(Cl)cccc3C(=O)OC)nn12 [Component B1.11, cloransulam-methyl] was tested, and the “Damage reduced by” value (corn [1]; in vivo) was 43% and the “Damage reduced by” value (corn [3]; in vivo) was 50%.

For COc1cc(Cl)nc(NC(=O)NS(=O)(=O)c2ccccc2C(=O)O)n1 [Component B1.12, chlorimuron], the “Damage reduced by” value (corn [2]) was 71% and the “Damage reduced by” value (corn [3]; [6]) was 86%.

CCOc1ccccc1OS(=O)(=O)NC(=O)Nc1nc(OC)cc(OC)n1 [Component B1.13, ethoxysulfuron] was tested, and the “Damage reduced by” value (corn [1]; in vivo) was 50% and the “Damage reduced by” value (corn [3]; in vivo) was 50%.

For Cc1ccn2nc(S(=O)(=O)Nc3c(F)cccc3F)nc2n1 [Component B1.16, flumetsulam], the “Damage reduced by” value (corn [1]; in vivo) was 57% and the “Damage reduced by” value (corn [3]; in vivo) was 43%.

With COc1cc(OC)nc(NC(=O)NS(=O)(=O)c2c(C(=O)O)c(Cl)nn2C)n1 [Component B1.17, halosulfuron] the “Damage reduced by” value (corn [3]; in vivo) was 100%.

COCc1cnc(C2=NC(C)(C(C)C)C(=O)N2)c(C(=O)O)c1 (stereo not drawn) [Component B1.18, imazamox] was tested, and the “Damage reduced by” value (corn [3]; [6]) was 40%.

With Cc1cnc(C2=NC(=O)C(C)(C(C)C)N2)c(C(=O)O)c1 (stereo not drawn) [Component B1.19, imazapic] the “Damage reduced by” value (corn [3]; in vivo) was 33%.

With CCc1cnc(C2=NC(C)(C(C)C)C(=O)N2)c(C(=O)O)c1 (stereo not drawn) [Component B1.21, imazethapyr] the “Damage reduced by” value (corn [3]; in vivo) was 71%.

COc1cc(OC)nc(NC(=O)NS(=O)(=O)c2cc(CNS(C)(=O)=O)ccc2C(=O)O)n1 [Component B1.22, mesosulfuron] was tested, and the “Damage reduced by” value (corn [1]; [5]) was 56%.

CCCOc1nn(C(=O)[N-]S(=O)(=O)c2ccccc2C(=O)OC)c(=O)n1C.[Na+] [Component B1.23, propoxycarbazone] was tested, and the “Damage reduced by” value (corn [2]) was 68%.

In the case of COc1cc(OC)nc(NC(=O)NS(=O)(=O)N(C)S(C)(=O)=O)n1 [Component B1.25, amidosulfuron], the “Damage reduced by” value (corn [3]; in vivo) is reported as 80%.

With COc1nc(C)nc(NC(=O)NS(=O)(=O)c2ccccc2Cl)n1 [Component B1.26, chlorsulfuron] the “Damage reduced by” value (corn [3]; in vivo) was 86%.

COc1nc(C)nc(NC(=O)NS(=O)(=O)c2ccccc2OCCCl)n1 [Component B1.28, triasulfuron] was tested, and the “Damage reduced by” value (corn [1]; in vivo) was 71%.

For COc1cc(OC)nc(NC(=O)NS(=O)(=O)c2nc(C(F)(F)F)ccc2C(=O)O)n1 [Component B1.31, flupyrsulfuron], the “Damage reduced by” value (corn [2]) was 75% and the “Damage reduced by” value (corn [3]; [6]) was 75%.

In the case of COc1cc(OC)nc(NC(=O)NS(=O)(=O)c2c(C(=O)O)cnn2C)n1 [Component B1.32, pyrazosulfuron], the “Damage reduced by” value (corn [1]; [5]) is reported as 38%.

CCS(=O)(=O)c1cccnc1S(=O)(=O)NC(=O)Nc1nc(OC)cc(OC)n1 [Component B1.36, rimsulfuron] was tested, and the “Damage reduced by” value (corn [3]; in vivo) was 100%.

CS(=O)(=O)c1ccc(C(=O)C2C(=O)CCCC2=O)c(Cl)c1 [Component B2.1, sulcotrione] was tested, and the “Damage reduced by” value (corn [3]; [6]) was 77%.

CS(=O)(=O)c1ccc(C(=O)C2C(=O)CCCC2=O)c([N+](=O)[O-])c1 [Component B2.3, mesotrione] was tested, and the “Damage reduced by” value (corn [3]; [6]) was 83%.

With Cc1c(C(=O)c2cnn(C)c2O)ccc(S(C)(=O)=O)c1C1=NOCC1 [Component B2.4, topramezone] the “Damage reduced by” value (corn [3]; [6]) was 64%.

For CSc1nnc(C(C)(C)C)c(=O)n1N [Component B3.1, metribuzin], the “Damage reduced by” value (corn [1]; [5]) was 50%.

CCCN(CCC)C(=O)SCC [Component B4.1, EPTC] was tested, and the “Damage reduced by” value (corn [3]; [6]) was 62%.

In the case of CCc1cccc(C)c1N(C(=O)CCl)[C@@H](C)COC [Component B5.2, S-metolachlor], the “Damage reduced by” value (corn [1]; [5]) is reported as 78%.

In the case of COc1c(Cl)ccc(Cl)c1C(=O)O [Component B7.1, dicamba], the “Damage reduced by” value (corn [3]; in vivo) is reported as 100%.

With CCC(CC)Nc1c([N+](=O)[O-])cc(C)c(C)c1[N+](=O)[O-] [Component B10.1, pendimethalin] the “Damage reduced by” value (corn [1]; [5]) was 54%.
